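Where inhibition never reached the appropriate level, the endpoint shown equals the highest concentration tested. Otherwise, values were interpolated linearly from a five-concentration, 48-hour dose response in 96-well plates. The concentration for 50% growth inhibition is given as GI50. TGI: concentration producing complete growth inhibition.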
Assays:
Assay in all cases: NCI-60 cell line screen, 48 h
786-0 renal = tested on: 786-0 renal
A498 renal = tested on: A498 renal
A549 NSCLC = tested on: A549 NSCLC
ACHN renal = tested on: ACHN renal
BT-549 breast = tested on: BT-549 breast
CAKI-1 renal = tested on: CAKI-1 renal
COLO 205 colon = tested on: COLO 205 colon
DU-145 prostate = tested on: DU-145 prostate
EKVX NSCLC = tested on: EKVX NSCLC
HCT-116 colon = tested on: HCT-116 colon
HL-60(TB) leukemia = tested on: HL-60(TB) leukemia
HOP-62 NSCLC = tested on: HOP-62 NSCLC
HOP-92 NSCLC = tested on: HOP-92 NSCLC
HS 578T breast = tested on: HS 578T breast
HT29 colon = tested on: HT29 colon
IGROV1 ovarian = tested on: IGROV1 ovarian
K-562 leukemia = tested on: K-562 leukemia
KM12 colon = tested on: KM12 colon
M14 melanoma = tested on: M14 melanoma
MCF7 breast = tested on: MCF7 breast
MDA-MB-435 = tested on: MDA-MB-435
MOLT-4 leukemia = tested on: MOLT-4 leukemia
NCI-H226 lung = tested on: NCI-H226 lung
NCI-H23 lung = tested on: NCI-H23 lung
NCI-H460 lung = tested on: NCI-H460 lung
NCI-H522 lung = tested on: NCI-H522 lung
NCI/ADR-RES ovarian = tested on: NCI/ADR-RES ovarian
OVCAR-3 ovarian = tested on: OVCAR-3 ovarian
OVCAR-4 ovarian = tested on: OVCAR-4 ovarian
OVCAR-5 ovarian = tested on: OVCAR-5 ovarian
OVCAR-8 ovarian = tested on: OVCAR-8 ovarian
PC-3 prostate = tested on: PC-3 prostate
RPMI-8226 leukemia = tested on: RPMI-8226 leukemia
RXF 393 renal = tested on: RXF 393 renal
SF-268 CNS = tested on: SF-268 CNS
SF-295 CNS = tested on: SF-295 CNS
SF-539 CNS = tested on: SF-539 CNS
SK-MEL-2 melanoma = tested on: SK-MEL-2 melanoma
SK-MEL-28 melanoma = tested on: SK-MEL-28 melanoma
SK-MEL-5 melanoma = tested on: SK-MEL-5 melanoma
SK-OV-3 ovarian = tested on: SK-OV-3 ovarian
SN12C renal = tested on: SN12C renal
SNB-19 CNS = tested on: SNB-19 CNS
SNB-75 CNS = tested on: SNB-75 CNS
SR leukemia = tested on: SR leukemia
SW-620 colon = tested on: SW-620 colon
TK-10 renal = tested on: TK-10 renal
UACC-257 melanoma = tested on: UACC-257 melanoma
UACC-62 melanoma = tested on: UACC-62 melanoma
UO-31 renal = tested on: UO-31 renal

## Nc1nc(Cl)c2ncn(Cc3ccc(-c4ccc(CCl)cc4)cc3)c2n1
786-0 renal
  GI50: 12.9 µM
  TGI: > 100 µM
A498 renal
  GI50: 35.2 µM
  TGI: > 100 µM
A549 NSCLC
  GI50: 19.3 µM
  TGI: > 100 µM
ACHN renal
  GI50: 4.5 µM
  TGI: > 100 µM
BT-549 breast
  GI50: 7.13 µM
  TGI: 37.8 µM
CAKI-1 renal
  GI50: 5.76 µM
  TGI: 33.3 µM
COLO 205 colon
  GI50: 7.17 µM
  TGI: 74.4 µM
DU-145 prostate
  GI50: 12.6 µM
  TGI: 25.6 µM
EKVX NSCLC
  GI50: 10.6 µM
  TGI: 40.1 µM
HCT-116 colon
  GI50: 6.71 µM
  TGI: 23.7 µM
HL-60(TB) leukemia
  GI50: 19.4 µM
  TGI: > 100 µM
HOP-62 NSCLC
  GI50: 15 µM
  TGI: 34.8 µM
HOP-92 NSCLC
  GI50: 1.3 µM
  TGI: 23.6 µM
HS 578T breast
  GI50: 43.4 µM
  TGI: > 100 µM
HT29 colon
  GI50: 11.3 µM
  TGI: 43.1 µM
IGROV1 ovarian
  GI50: 12.5 µM
  TGI: > 100 µM
K-562 leukemia
  GI50: 13.9 µM
  TGI: > 100 µM
KM12 colon
  GI50: 27.7 µM
  TGI: > 100 µM
M14 melanoma
  GI50: 13.3 µM
  TGI: 29.4 µM
MCF7 breast
  GI50: 7.31 µM
  TGI: 71.7 µM
MDA-MB-435
  GI50: 14.6 µM
  TGI: 36.3 µM
MOLT-4 leukemia
  GI50: > 100 µM
  TGI: > 100 µM
NCI-H226 lung
  GI50: 3.47 µM
  TGI: 17.9 µM
NCI-H23 lung
  GI50: 5.6 µM
  TGI: 19.9 µM
NCI-H460 lung
  GI50: 20.4 µM
  TGI: 69.1 µM
NCI-H522 lung
  GI50: > 100 µM
  TGI: > 100 µM
NCI/ADR-RES ovarian
  GI50: 10.4 µM
  TGI: 34.3 µM
OVCAR-3 ovarian
  GI50: 7.3 µM
  TGI: 32 µM
OVCAR-4 ovarian
  GI50: 8.12 µM
  TGI: 43.6 µM
OVCAR-5 ovarian
  GI50: 20.8 µM
  TGI: > 100 µM
OVCAR-8 ovarian
  GI50: 7.86 µM
  TGI: 29.5 µM
PC-3 prostate
  GI50: 9.08 µM
  TGI: > 100 µM
RPMI-8226 leukemia
  GI50: 1.43 µM
  TGI: 5.58 µM
RXF 393 renal
  GI50: 12.1 µM
  TGI: 54.4 µM
SF-268 CNS
  GI50: 16.2 µM
  TGI: 36.5 µM
SF-295 CNS
  GI50: 17.4 µM
  TGI: > 100 µM
SF-539 CNS
  GI50: 10.9 µM
  TGI: 26.6 µM
SK-MEL-2 melanoma
  GI50: 33.9 µM
  TGI: > 100 µM
SK-MEL-28 melanoma
  GI50: 14.7 µM
  TGI: 33.7 µM
SK-MEL-5 melanoma
  GI50: 4.42 µM
  TGI: 18.9 µM
SK-OV-3 ovarian
  GI50: 37.1 µM
  TGI: > 100 µM
SN12C renal
  GI50: 2.54 µM
  TGI: 10.1 µM
SNB-19 CNS
  GI50: 38.4 µM
  TGI: > 100 µM
SNB-75 CNS
  GI50: 10.3 µM
  TGI: 28.1 µM
SR leukemia
  GI50: 3.09 µM
  TGI: > 100 µM
SW-620 colon
  GI50: 14.1 µM
  TGI: 76.1 µM
TK-10 renal
  GI50: 6.44 µM
  TGI: 19.8 µM
UACC-257 melanoma
  GI50: 3.24 µM
  TGI: 15.2 µM
UACC-62 melanoma
  GI50: 9.26 µM
  TGI: 23 µM
UO-31 renal
  GI50: 17.7 µM
  TGI: > 100 µM

— PubChem BioAssay (NCI)
